Data on 33 molecules can be found in patent US20190359609A1, “BICYCLIC OGA INHIBITOR COMPOUNDS” (Janssen Pharmaceutica NV, priority 2016, published 2019).

Where two headings read alike, the source gives them in different places. Some results are limits rather than exact numbers.

For this assay, the target named is T1, recombinant human Meningioma Expressed Antigen 5 (MGEA5), also referred to as O-GlcNAcase (OGA) (Homo sapiens, UniProt O60502).
T1 construct: Full length OGA enzyme was purchased at OriGene (cat # TP322411); purchased OriGene TP322411
T1 sequence (O60502 1-916): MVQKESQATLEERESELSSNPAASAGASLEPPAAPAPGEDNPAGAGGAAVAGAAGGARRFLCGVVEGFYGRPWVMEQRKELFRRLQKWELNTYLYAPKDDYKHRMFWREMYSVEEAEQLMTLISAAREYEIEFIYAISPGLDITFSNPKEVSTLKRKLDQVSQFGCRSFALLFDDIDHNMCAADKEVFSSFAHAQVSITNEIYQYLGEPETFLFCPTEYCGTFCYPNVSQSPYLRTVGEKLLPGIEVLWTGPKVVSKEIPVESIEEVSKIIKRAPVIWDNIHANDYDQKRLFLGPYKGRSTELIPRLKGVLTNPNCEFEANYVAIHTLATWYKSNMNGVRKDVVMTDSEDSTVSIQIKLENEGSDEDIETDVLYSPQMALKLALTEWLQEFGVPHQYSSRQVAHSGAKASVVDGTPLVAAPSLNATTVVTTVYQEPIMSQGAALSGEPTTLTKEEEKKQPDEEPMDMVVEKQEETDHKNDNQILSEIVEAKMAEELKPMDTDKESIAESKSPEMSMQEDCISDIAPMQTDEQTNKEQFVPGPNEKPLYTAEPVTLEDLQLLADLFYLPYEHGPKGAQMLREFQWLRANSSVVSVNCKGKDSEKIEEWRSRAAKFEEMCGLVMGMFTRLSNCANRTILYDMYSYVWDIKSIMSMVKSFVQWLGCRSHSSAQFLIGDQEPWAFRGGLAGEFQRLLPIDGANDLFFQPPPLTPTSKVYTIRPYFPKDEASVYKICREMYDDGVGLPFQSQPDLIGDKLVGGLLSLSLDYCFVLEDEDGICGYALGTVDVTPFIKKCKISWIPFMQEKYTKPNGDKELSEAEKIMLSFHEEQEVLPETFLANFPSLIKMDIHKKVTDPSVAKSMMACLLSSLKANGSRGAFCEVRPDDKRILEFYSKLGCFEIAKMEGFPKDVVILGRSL
Nature of the assay: OGA biochemical assay: inhibition of FM-GlcNAc hydrolysis, fluorescence (protocol A 10 nM OGA, 1 h; protocol B 2 nM OGA, 6 h). From the text:
The assay is based on the inhibition of the hydrolysis of fluorescein mono-B-D-N-Acetyl-Glucosamine (FM-GlcNAc) (Mariappa et al. 2015, Biochem J 470:255) by the recombinant human Meningioma Expressed Antigen 5 (MGEA5), also referred to as 0-GlcNAcase (OGA). The hydrolysis FM-GlcNAc (Marker Gene technologies, cat # M1485) results in the formation of β-D-N-glucosamineacetate and fluorescein. The fluorescence of the latter can be measured at excitation wavelength 485 nm and emission wavelength 538 nm. An increase in enzyme activity results in an increase in fluorescence signal. Full length OGA enzyme was purchased at OriGene (cat # TP322411). The enzyme was stored in 25 mM Tris.HCl, pH 7.3, 100 mM glycine, 10% glycerol at −20° C. Thiamet G and GlcNAcStatin were tested as reference compounds (Yuzwa et al. 2008 Nature Chemical Biology 4:483; Yuzwa et al. 2012 Nature Chemical Biology 8:393). The assay was performed in 200 mM Citrate/phosphate buffer supplemented with 0.005% Tween-20. 35.6 g Na2HPO4 2 H2O (Sigma, # C0759) were dissolved in 1 L water to obtain a 200 mM solution. 19.2 g citric acid (Merck, #1.06580) was dissolved in 1 L water to obtain a 100 mM solution. pH of the sodiumphosphate solution was adjusted with the citric acid solution to 7.2. The buffer to stop the reaction consists of a 500 mM Carbonate buffer, pH 11.0. 734 mg FM-GlcNAc were dissolved in 5.48 mL DMSO to obtain a 250 mM solution and was stored at −20° C. OGA was used at a 10 nM (protocol A) or 2 nM (protocol B) concentration and FM-GlcNAc at a 100 uM final concentration. Dilutions were prepared in assay buffer.
50 nl of a compound dissolved in DMSO was dispensed on Black Proxiplate™ 384 Plus Assay plates (Perkin Elmer, #6008269) and 3 μl fl-OGA enzyme mix added subsequently. Plates were pre-incubated for 60 min at room temperature and then 2 μl FM-GlcNAc substrate mix added. […] Plates were briefly centrifuged for 1 min at 1000 rpm and incubate at room temperature for 1 h (10 nM OGA, protocol A) or 6 h (2 nM OGA, protocol B). To stop the reaction 5 μl STOP buffer were added and plates centrifuge again 1 min at 1000 rpm. Fluorescence was quantified in the Thermo Scientific Fluoroskan Ascent or the PerkinElmer EnVision with excitation wavelength 485 nm and emission wavelength 538 nm.
For analysis a best-fit curve is fitted by a minimum sum of squares method. From this an IC50 value and Hill coefficient was obtained. High control (no inhibitor) and low control (saturating concentrations of standard inhibitor) were used to define the minimum and maximum values.

Setting [1] is: Enzymatic protocol B (2 nM OGA, 6 h), read-out: Enzymatic Emax (%).
The mark [2] stands for this setting: Enzymatic protocol B (2 nM OGA, 6 h), read-out: Enzymatic hOGA, pIC50 (converted).
Setting [3] is: Enzymatic protocol A (10 nM OGA, 1 h), read-out: Enzymatic hOGA, pIC50 (converted).
The mark [4] stands for this setting: Enzymatic protocol B (2 nM OGA, 6 h).
Setting [5] is: Enzymatic protocol A (10 nM OGA, 1 h), read-out: Enzymatic Emax (%).

For orientation: Emax means the size of the effect at its maximum, as opposed to the concentration needed. For the molecule `CC(c1ccc2c(c1)OCO2)N1CCCC(c2cc3ncccc3n2C)C1` (racemic) [Compound 44], the Emax under setting [1] is 99%. Besides, the IC50 under setting [2] was 83.2 nM.
On to `CC(=O)Nc1ncc(S(=O)(=O)N2CCCC(c3cc4ncccc4[nH]3)C2)s1` (single isomer, unassigned) [Compound 3], for which the “Enzymatic Emax (%)” value (Enzymatic protocol A (10 nM OGA, 1 h)) stood at 99%. In addition, under setting [3], the IC50 was 562 nM.
In the case of `CC(=O)Nc1ncc(CN2CCCC(c3cc4cnccc4[nH]3)C2)s1` (single isomer, unassigned) [Compound 13], the Emax under setting [1] amounted to 98.9%. Moreover, the IC50 under setting [2] was 22.9 nM.
As for `CC(=O)Nc1ncc(CN2CCCC(c3cc4cnccc4[nH]3)C2)s1` (single isomer, unassigned) [Compound 14], the “Enzymatic Emax (%)” value under setting [4] is 96.3%. The IC50 under setting [2] was 676 nM.
In the same order, the values of `CC(c1ccc2c(c1)OCO2)N1CCCC(c2cc3ncccc3[nH]2)C1` (single isomer, unassigned) [Compound 29] are 73.5% and 3720 nM.
On the same counts, the results for `CC(c1ccc2c(c1)OCO2)N1CCCC(c2cc3ncccc3[nH]2)C1` (single isomer, unassigned) [Compound 30] are 75.1% and 4070 nM.
In the same order, the values of `CC(c1ccc2c(c1)OCO2)N1CCCC(c2cc3ncccc3[nH]2)C1` (single isomer, unassigned) [Compound 32] are 89.4% and 1780 nM.
As for `CC(c1ccc2c(c1)OCCO2)N1CCCC(c2cc3ncccc3[nH]2)C1` (single isomer, unassigned) [Compound 34], the Emax under setting [1] is 93.8%. Moreover, under setting [2], the IC50 is 708 nM.
For the molecule `CC(c1ccc2c(c1)OCCO2)N1CCCC(c2cc3ncccc3[nH]2)C1` (single isomer, unassigned) [Compound 35], the “Enzymatic Emax (%)” value under setting [4] was found to be 87.7%. Moreover, the IC50 under setting [2] is 2450 nM.
In the same order, the values of `CC(c1ccc2c(c1)OCCO2)N1CCCC(c2cc3ncccc3[nH]2)C1` (single isomer, unassigned) [Compound 36] are 101.3% and 11 nM.
In the same order, the values of `CC(c1ccc2c(c1)OCCO2)N1CCCC(c2cc3ncccc3[nH]2)C1` (single isomer, unassigned) [Compound 37] are 96.0% and 955 nM.
In the same order, the values of `Cn1c(C2CCCN(Cc3ccc4nccnc4c3)C2)cc2ncccc21` (single isomer, unassigned) [Compound 42] are 93.2% and 776 nM.
Consider `Cn1c(C2CCCN(Cc3ccc4nccnc4c3)C2)cc2ncccc21` (single isomer, unassigned) [Compound 43], for which the “Enzymatic Emax (%)” value under setting [4] is 46.5%. The IC50 under setting [2] was over 10000 nM.
`CC(c1ccc2c(c1)OCO2)N1CCCC(c2cc3ncccc3n2C)C1` (single isomer, unassigned) [Compound 45]: the “Enzymatic Emax (%)” value under setting [4] was 100%. Moreover, the IC50 under setting [2] is 27.5 nM.
On the same counts, the results for `CC(c1ccc2c(c1)OCO2)N1CCCC(c2cc3ncccc3n2C)C1` (single isomer, unassigned) [Compound 46] are 24.2% and over 10000 nM.
In the same order, the values of `CC(c1ccc2c(c1)OCO2)N1CCCC(c2cc3ncccc3n2C)C1` (single isomer, unassigned) [Compound 47] are 85.8% and 1550 nM.
In the same order, the values of `CC(c1ccc2c(c1)OCO2)N1CCCC(c2cc3ncccc3n2C)C1` (single isomer, unassigned) [Compound 48] are 31.7% and over 10000 nM.
With `CC(=O)Nc1ncc(S(=O)(=O)N2CCCC(c3nc4ncccc4[nH]3)C2)s1` (stereo not drawn) [Compound 1], the Emax under setting [5] was found to be 75.9%. Besides, the IC50 under setting [3] is 1860 nM.
On to `CC(=O)Nc1ncc(CN2CCCC(c3cc4ncccc4[nH]3)C2)s1` (stereo not drawn) [Compound 5], for which the Emax under setting [5] was found to be 99.7% and the Emax (comparative table, protocol not given, read-out: Emax (OGA inhibitory activity, comparison with 1,4-disubstituted piperidine comparator)) amounted to 99.7%. Also, the IC50 by setting is: under setting [3], 25.7 nM; (comparative table, protocol not given, read-out: pIC50 (OGA inhibitory activity, comparison with 1,4-disubstituted piperidine comparator) (converted)) 25.7 nM. Also, where the note is “greater than the corresponding 1,4-disubstituted piperidine compound (comparator)”, the “OGA inhibitory activity compared with comparator” value is recorded as ~1 order of magnitude.
For the molecule `CC(=O)N(C)c1ncc(CN2CCCC(c3cc4ncccc4[nH]3)C2)s1` (stereo not drawn) [Compound 10], the Emax under setting [1] worked out at 90.1%. Moreover, the IC50 under setting [2] is 1020 nM.
In the same order, the values of `CC(=O)Nc1ncc(CN2CCOC(c3cc4ncccc4[nH]3)C2)s1` (stereo not drawn) [Compound 27] are 77.3% and 3160 nM.
With `c1cnc2cc(C3CCCN(Cc4ccc5c(c4)OCO5)C3)[nH]c2c1` (stereo not drawn) [Compound 38], under setting [5], the Emax was 99.9%. The IC50 under setting [3] was 1740 nM.
As to `Cn1c(C2CCCN(Cc3ccc4nccnc4c3)C2)cc2ncccc21` (stereo not drawn) [Compound 41], the Emax under setting [1] turned out to be 89.8%. Also, the IC50 under setting [2] is 1260 nM.
In the same order, the values of `Cn1c(C2CCCN(Cc3cc4c(cn3)OCCO4)C2)cc2ncccc21` (stereo not drawn) [Compound 50] are 52.3% and 8710 nM.
On the same counts, the results for `Cn1c(C2CCCN(Cc3ccc4ccccc4n3)C2)cc2ncccc21` (stereo not drawn) [Compound 51] are 56.7% and 7760 nM.
In the same order, the values of `Cn1c(C2CCCN(Cc3ccc4nsnc4c3)C2)cc2ncccc21` (stereo not drawn) [Compound 52] are 72.2% and 3980 nM.
With `Cn1c(C2CCCN(Cc3ccc4scnc4c3)C2)cc2ncccc21` (stereo not drawn) [Compound 53], the Emax under setting [1] was 97.2%. The IC50 under setting [2] was 832 nM.
On to `Cn1c(CN2CCCC(c3cc4ncccc4n3C)C2)cc2ccccc21` (stereo not drawn) [Compound 54], for which the Emax under setting [1] was determined as 69.1%. In addition, the IC50 under setting [2] was 4070 nM.
On the same counts, the results for `Cn1c(C2CCCN(Cc3cnc4c(c3)OCCO4)C2)cc2ncccc21` (stereo not drawn) [Compound 55] are 81.5% and 2190 nM.
In the same order, the values of `Cn1c(C2CCCN(Cc3nc4ccccc4n3C)C2)cc2ncccc21` (stereo not drawn) [Compound 56] are 98% and 832 nM.
In the same order, the values of `CC(=O)Nc1ncc(CN2CCNC(c3cc4ncccc4[nH]3)C2)s1` (stereo not drawn) [Compound 57] are 60.8% and 6610 nM.
Take `Cn1c(C2CCCN(Cc3ccc4cccnc4c3)C2)cc2ncccc21` (stereo not drawn) [Compound 63]: the Emax under setting [1] was determined as 23.9%. Further, under setting [2], the IC50 is over 10000 nM.
On to `CC(=O)Nc1ncc(CN2CCCC(Cn3ccc4ncccc43)C2)s1` (stereo not drawn) [Compound 64], for which the maximum response (Emax) under setting [1] was determined as 100%. Further, the IC50 under setting [2] was 7.76 nM.
